Data published in PubChem BioAssay AID1963434 (Molecular Pharmacology Branch, DTP, NCI, 2024).

Test system: 755483-174-R-J1-PDC complex spheroid growth, percent test/control
Assay: Anticancer human tumor 755483-174-R-J1-PDC patient-derived rhabdomyosarcoma cell line growth inhibition [Asc]
Conditions: for IC50: curve of first compound; for viability, T/C: stronger effect = lower value
In short: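 Complex solid-tumor spheroids incorporating human endothelial and mesenchymal stem cells received single agents or combinations over half-log dilution ranges anchored to clinical Cmax.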

[1] = second compound 0.1 µM, first compound 0.00316 µM
[2] = second compound 0.1 µM, first compound 0.01 µM
[3] = second compound 0.1 µM, first compound 0.0316 µM
[4] = second compound 0.1 µM, first compound 0.1 µM
[5] = second compound 0.1 µM, first compound 0.316 µM
[6] = second compound 0.1 µM, first compound 1 µM
[7] = second compound 0.316 µM, first compound 0.00316 µM
[8] = second compound 0.316 µM, first compound 0.01 µM
[9] = second compound 0.316 µM, first compound 0.0316 µM
[10] = second compound 0.316 µM, first compound 0.1 µM
[11] = second compound 0.316 µM, first compound 0.316 µM
[12] = second compound 0.316 µM, first compound 1 µM
[13] = second compound 1 µM, first compound 0.00316 µM
[14] = second compound 1 µM, first compound 0.01 µM
[15] = second compound 1 µM, first compound 0.0316 µM
[16] = second compound 1 µM, first compound 0.1 µM
[17] = second compound 1 µM, first compound 0.316 µM
[18] = second compound 1 µM, first compound 1 µM
[19] = second compound 3.16 µM, first compound 0.00316 µM
[20] = second compound 3.16 µM, first compound 0.01 µM
[21] = second compound 3.16 µM, first compound 0.0316 µM
[22] = second compound 3.16 µM, first compound 0.1 µM
[23] = second compound 3.16 µM, first compound 0.316 µM
[24] = second compound 3.16 µM, first compound 1 µM
[25] = second compound 10 µM, first compound 0.00316 µM
[26] = second compound 10 µM, first compound 0.01 µM
[27] = second compound 10 µM, first compound 0.0316 µM
[28] = second compound 10 µM, first compound 0.1 µM
[29] = second compound 10 µM, first compound 0.316 µM
[30] = second compound 10 µM, first compound 1 µM
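Also: spheroids exposed to compounds for seven days before readout.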

Row | SMILES | IC50 (second compound 0.1 µM) | IC50 (second compound 0.316 µM) | IC50 (second compound 1 µM) | IC50 (second compound 3.16 µM) | IC50 (second compound 10 µM) | viability, T/C [1] | viability, T/C [2] | viability, T/C [3] | viability, T/C [4] | viability, T/C [5] | viability, T/C [6] | viability, T/C [7] | viability, T/C [9] | viability, T/C [10] | viability, T/C [15] | viability, T/C [16] | viability, T/C [21] | viability, T/C [22] | viability, T/C [27] | viability, T/C [28] | other results
1 | CCN1CCN(Cc2ccc(Nc3ncc(F)c(-c4cc(F)c5nc(C)n(C(C)C)c5c4)n3)nc2)CC1 + Cc1c(S(C)(=O)=O)c(-c2cc(F)cc(N3CCN(c4ccc(NS(=O)(=O)c5ccc(NC(CCN6CCC(C(=O)OCCCP(=O)(O)O)CC6)CSc6ccccc6)c(S(=O)(=O)C(F)(F)F)c5)cc4)CC3)c2)c(-c2ccc(Cl)cc2)n1C(C)C | > 1000 nM | < 3.16 nM | < 3.16 nM | < 3.16 nM | < 3.16 nM | 43% | 62.1% | 59.5% | 68.5% | 103% | 104% | 41% | 57.9% | 59.3% | 37.3% | 50.2% | 36.6% | 45.4% | 55% | 54.4% | viability, T/C [8]: 48%; viability, T/C [11]: 69%; viability, T/C [12]: 81.7%; viability, T/C [13]: 33.3%; viability, T/C [14]: 45.3%; viability, T/C [17]: 49.5%; viability, T/C [18]: 49.7%; viability, T/C [19]: 31.3%; viability, T/C [20]: 66%; viability, T/C [23]: 40.9%; viability, T/C [24]: 58.5%; viability, T/C [25]: 52.8%; viability, T/C [26]: 41.9%; viability, T/C [29]: 66.9%; viability, T/C [30]: 70.9%
2 | Cn1ncnc1[C@H]1c2n[nH]c(=O)c3cc(F)cc(c23)N[C@@H]1c1ccc(F)cc1 + Cc1c(S(C)(=O)=O)c(-c2cc(F)cc(N3CCN(c4ccc(NS(=O)(=O)c5ccc(NC(CCN6CCC(C(=O)OCCCP(=O)(O)O)CC6)CSc6ccccc6)c(S(=O)(=O)C(F)(F)F)c5)cc4)CC3)c2)c(-c2ccc(Cl)cc2)n1C(C)C | 1.85 nM | < 0.316 nM | < 0.316 nM | < 0.316 nM | < 0.316 nM | 49.3% | 30.7% | 28.1% | 35% |  |  | 34.7% | 25% | 30.3% | 23.7% | 21.6% | 19.2% | 18.8% | 16.7% | 15.7% | viability, T/C (second compound 0.1 µM, first compound 0.000316 µM): 50.8%; viability, T/C (second compound 0.1 µM, first compound 0.001 µM): 50.7%; viability, T/C (second compound 0.316 µM, first compound 0.000316 µM): 46.2%; viability, T/C (second compound 0.316 µM, first compound 0.001 µM): 41%; viability, T/C [8]: 38.1%; viability, T/C (second compound 1 µM, first compound 0.000316 µM): 38.2%; viability, T/C (second compound 1 µM, first compound 0.001 µM): 32.1%; viability, T/C [13]: 35%; viability, T/C [14]: 34%; viability, T/C (second compound 3.16 µM, first compound 0.000316 µM): 38%; viability, T/C (second compound 3.16 µM, first compound 0.001 µM): 39.3%; viability, T/C [19]: 24.7%; viability, T/C [20]: 18.6%; viability, T/C (second compound 10 µM, first compound 0.000316 µM): 32.6%; viability, T/C (second compound 10 µM, first compound 0.001 µM): 39.4%; viability, T/C [25]: 32.9%; viability, T/C [26]: 29.5%
3 | O=C(c1cc(Cc2n[nH]c(=O)c3ccccc23)ccc1F)N1CCN(C(=O)C2CC2)CC1 + Cc1c(S(C)(=O)=O)c(-c2cc(F)cc(N3CCN(c4ccc(NS(=O)(=O)c5ccc(NC(CCN6CCC(C(=O)OCCCP(=O)(O)O)CC6)CSc6ccccc6)c(S(=O)(=O)C(F)(F)F)c5)cc4)CC3)c2)c(-c2ccc(Cl)cc2)n1C(C)C | < 31.6 nM | < 31.6 nM | < 31.6 nM | < 31.6 nM | < 31.6 nM |  |  | 40.4% | 35.8% | 53% | 47.3% |  | 39.7% | 32.4% | 32.6% | 38.9% | 31% | 32.7% | 20.1% | 30.2% | viability, T/C (second compound 0.1 µM, first compound 3.16 µM): 25.8%; viability, T/C (second compound 0.1 µM, first compound 10 µM): 14.7%; viability, T/C [11]: 28.6%; viability, T/C [12]: 25.4%; viability, T/C (second compound 0.316 µM, first compound 3.16 µM): 23.5%; viability, T/C (second compound 0.316 µM, first compound 10 µM): 12.2%; viability, T/C [17]: 24.2%; viability, T/C [18]: 31.6%; viability, T/C (second compound 1 µM, first compound 3.16 µM): 20.4%; viability, T/C (second compound 1 µM, first compound 10 µM): 12.7%; viability, T/C [23]: 22.9%; viability, T/C [24]: 17.6%; viability, T/C (second compound 3.16 µM, first compound 3.16 µM): 14.7%; viability, T/C (second compound 3.16 µM, first compound 10 µM): 8.75%; viability, T/C [29]: 24.1%; viability, T/C [30]: 33.2%; viability, T/C (second compound 10 µM, first compound 3.16 µM): 20.3%; viability, T/C (second compound 10 µM, first compound 10 µM): 9.59%
4 | O=C(c1ccc(F)c(F)c1Nc1ccc(I)cc1F)N1CC(O)([C@@H]2CCCCN2)C1 + Cc1c(S(C)(=O)=O)c(-c2cc(F)cc(N3CCN(c4ccc(NS(=O)(=O)c5ccc(NC(CCN6CCC(C(=O)OCCCP(=O)(O)O)CC6)CSc6ccccc6)c(S(=O)(=O)C(F)(F)F)c5)cc4)CC3)c2)c(-c2ccc(Cl)cc2)n1C(C)C | 21.6 nM | < 3.16 nM | < 3.16 nM | < 3.16 nM | < 3.16 nM | 46.3% | 71.5% | 33.4% | 45.1% | 30.7% | 4.92% | 41.9% | 44.8% | 43.7% | 42.1% | 36.9% | 26.6% | 29.5% | 32.1% | 29.1% | viability, T/C [8]: 42%; viability, T/C [11]: 22%; viability, T/C [12]: 6.11%; viability, T/C [13]: 39.2%; viability, T/C [14]: 44.3%; viability, T/C [17]: 24.6%; viability, T/C [18]: 4.55%; viability, T/C [19]: 38.9%; viability, T/C [20]: 25%; viability, T/C [23]: 15.3%; viability, T/C [24]: 3.65%; viability, T/C [25]: 34.5%; viability, T/C [26]: 42%; viability, T/C [29]: 11.1%; viability, T/C [30]: 2.13%
